These results are taken from publication PMC10463010 (RSC Advances, 2023).

Series [1] can be described thus: Cytotoxic effect on RAW 264.7 using MTT assay. The conditions noted are these: mouse, RAW 264.7 cells. The class given is cell-based.
Series [2] deals with NO production in RAW264.7 stimulated by LPS. Description: NO production in LPS-stimulated RAW 264.7. The format is cell-based. The conditions noted are these: Mus musculus, RAW264.7, read-out: % inhibition of NO production.
The target in series [3] is acetylcholinesterase (AChE) (Homo sapiens, UniProt P22303). In words: Acetylcholinesterase inhibition assay. The format is biochemical.
A further series relates to TNF. The conditions noted are these: 20 μM, LPS stimulated RAW264.7; cited from earlier work.
Another series has as its system TNF-α. In words: TNF-α level in LPS-induced RAW 264.7. The class given is cell-based. To be noted: RAW 264.7, in comparison to LPS treated cells.
Series [4] is described as follows: In vitro hydrolysis / chemical stability in buffers. The class given is physicochemical. To be noted: 0.1 M HCl (simulated gastric conditions), pH 1.4.
Another series deals with IL-1β. Description: IL-1β level in LPS-induced RAW 264.7. The format is cell-based. To be noted: RAW 264.7, in comparison to LPS treated cells.
A further series concerns IL-6. In words: IL-6 level in LPS-induced RAW 264.7. The format is cell-based.
The next series deals with SK-N-SH Cells. The conditions noted are these: Aβ-induced SK-N-SH cells, increased from 20%; cited from earlier work.

acetylcholinesterase (AChE), sequence (P22303 32-614, species assumed): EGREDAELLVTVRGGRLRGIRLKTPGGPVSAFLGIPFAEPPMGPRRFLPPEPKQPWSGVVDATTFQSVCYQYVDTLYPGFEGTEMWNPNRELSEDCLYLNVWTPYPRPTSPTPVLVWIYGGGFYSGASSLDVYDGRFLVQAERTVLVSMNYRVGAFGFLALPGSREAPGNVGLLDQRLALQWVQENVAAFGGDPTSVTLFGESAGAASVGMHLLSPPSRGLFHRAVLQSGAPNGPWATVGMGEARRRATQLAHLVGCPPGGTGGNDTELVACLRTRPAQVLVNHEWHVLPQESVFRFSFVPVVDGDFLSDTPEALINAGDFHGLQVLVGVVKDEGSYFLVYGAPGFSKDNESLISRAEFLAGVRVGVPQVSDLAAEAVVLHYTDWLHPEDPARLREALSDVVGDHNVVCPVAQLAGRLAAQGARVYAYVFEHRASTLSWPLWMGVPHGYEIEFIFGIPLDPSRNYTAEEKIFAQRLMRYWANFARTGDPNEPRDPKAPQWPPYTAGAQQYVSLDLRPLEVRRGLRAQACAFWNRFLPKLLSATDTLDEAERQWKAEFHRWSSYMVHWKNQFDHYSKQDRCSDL

With `COc1cc(/C=N/NC(=O)Cn2cnc3c2c(=O)n(C)c(=O)n3C)ccc1O` [18j, (E)-2-(1,3-Dimethyl-2,6-dioxo-1,2,3,6-tetrahydro-7H-purin-7-yl)-N′-(4-hydroxy-3-methoxybenzylidene)acetohydrazide], in series [1], the viability at 24 h, 50 µM stood at 89 ± 1%. The inhibition at 25 µM in series [2] was 92.2 ± 0.86%. This compound came in with an IC50 in [3] of 14.6 ± 0.5 µM.
With `COc1ccc(OC)c(/C=N/NC(=O)Cn2cnc3c2c(=O)n(C)c(=O)n3C)c1` [18c, E-N′-(2,5-Dimethoxybenzylidene)-2-(1,3-dimethyl-2,6-dioxo-1,2,3,6-tetrahydro-7H-purin-7-yl)acetohydrazide], the viability at 24 h, 50 µM in [1] is 88 ± 0.8%. Moreover, the inhibition at 25 µM in series [2] stood at 75 ± 0.88%.
For `Cn1c(=O)c2c(ncn2CC(=O)O)n(C)c1=O` [compound 2, theophylline-7-acetic acid, reference compound], in series [1], the viability at 24 h, 50 µM worked out at 85 ± 1.7%. In addition, the inhibition at 25 µM in series [2] is 58.7 ± 1.82%.
With `Cc1ccc(C(C)C)c(OC(=O)Cn2cc(COC(=O)Cn3cnc4c3c(=O)n(C)c(=O)n4C)nn2)c1` [15b, (1-(2-(2-Isopropyl-5-methylphenoxy)-2-oxoethyl)-1H-1,2,3-triazol-4-yl)methyl-2-(1,3-dimethyl-2,6-dioxo-1,2,3,6-tetrahydro-7H-purin-7-yl)acetate], the viability at 24 h, 50 µM in [1] was 97 ± 0.6%. In series [2], the inhibition at 25 µM was found to be 68.6 ± 0.92%.
Take `Cn1c(=O)c2[nH]cnc2n(C)c1=O` [theophylline]: the “Effect on TNF production” value with TNF is listed as “suppress TNF production”.
Take `Cn1c(=O)c2c(ncn2CC(=O)OCc2cn(-c3cc(=O)oc4ccccc34)nn2)n(C)c1=O` [15c, (1-(2-Oxo-2H-chromen-4-yl)-1H-1,2,3-triazol-4-yl)methyl-2-(1,3-dimethyl-2,6-dioxo-1,2,3,6-tetrahydro-7H-purin-7-yl)acetate]: in [1], the viability at 24 h, 50 µM was 88 ± 0.8%. Moreover, the inhibition at 25 µM in [2] came out at 85 ± 0.88%. The compound also gave an IC50 in series [3] of 9.8 ± 0.7 µM.
As for `Cn1c(=O)c2c(ncn2CC(=O)N/N=C2/C(=O)Nc3ccccc32)n(C)c1=O` [compound 19, (E)-2-(1,3-Dimethyl-2,6-dioxo-1,2,3,6-tetrahydro-7H-purin-7-yl)-N′-(2-oxoindolin-3-ylidene)acetohydrazide], the “Reduction of TNF-α” value was determined as 31.8% with TNF-α (1 μM) and 53% in the series on TNF-α (10 μM). The viability at 24 h, 50 µM in series [1] was found to be 89.5 ± 1.1%. Besides, the half-life at 75 μM in series [4] was 1.8 h. Moreover, in series [2], the inhibition at 25 µM came to 90 ± 0.88%. In [3], the IC50 is 3.3 ± 0.2 µM. Also, the “Reduction of IL-1β” value with IL-1β (1 μM) turned out to be 49.4%. In the series with IL-1β (10 μM), the “Downregulation of IL-1β” value came to 66.7%. Moreover, the “Decrease of IL-6 levels” value in the series on IL-6 (1 μM, RAW 264.7, in comparison to cells induced by LPS) was 47.5%; with IL-6 (10 μM, RAW 264.7, in comparison to LPS treated cells), 57.7%.
In the case of `COc1cccc(/C=N/NC(=O)Cn2cnc3c2c(=O)n(C)c(=O)n3C)c1` [18f, (E)-2-(1,3-Dimethyl-2,6-dioxo-1,2,3,6-tetrahydro-7H-purin-7-yl)-N′-(3-methoxybenzylidene)acetohydrazide], the viability at 24 h, 50 µM in [1] came to 91 ± 1%. Besides, the inhibition at 25 µM in series [2] was determined as 63.2 ± 0.93%.
On to `Cn1c(=O)c2c(ncn2CC(=O)N/N=C/c2ccccc2)n(C)c1=O` [18a, E-N′-Benzylidene-2-(1,3-dimethyl-2,6-dioxo-1,2,3,6-tetrahydro-7H-purin-7-yl)acetohydrazide], for which, in series [1], the viability at 24 h, 50 µM is 94 ± 0.2%. In series [2], the inhibition at 25 µM was 65.4 ± 0.84%.
`COC(=O)[C@@H](N)CCCNC(N)=N[N+](=O)[O-]` [L-NAME, L-NG-nitro arginine methyl ester, reference compound]: the inhibition at 250 µM in series [2] was determined as 84.8 ± 0.9%.
Take `Cn1c(=O)c2c(ncn2CC(=O)N/N=C/c2ccccc2O)n(C)c1=O` [18g, (E)-2-(1,3-Dimethyl-2,6-dioxo-1,2,3,6-tetrahydro-7H-purin-7-yl)-N′-(2-hydroxybenzylidene)acetohydrazide]: the viability at 24 h, 50 µM in series [1] was 92 ± 1%. The inhibition at 25 µM in [2] was determined as 66.4 ± 0.79%.
With `COc1ccc(/C=N/NC(=O)Cn2cnc3c2c(=O)n(C)c(=O)n3C)cc1` [18l, (E)-2-(1,3-Dimethyl-2,6-dioxo-1,2,3,6-tetrahydro-7H-purin-7-yl)-N′-(4-methoxybenzylidene)acetohydrazide], the viability at 24 h, 50 µM in series [1] stood at 93 ± 1%. Also, the inhibition at 25 µM in [2] is 85.4 ± 0.87%.
Taken in the same sequence, the figures for `Cn1c(=O)c2c(ncn2CC(=O)N/N=C/c2ccc3c(c2)OCO3)n(C)c1=O` [18h, (E)-N′-(Benzo[d][1,3]dioxol-5-ylmethylene)-2-(1,3-dimethyl-2,6-dioxo-1,2,3,6-tetrahydro-7H-purin-7-yl)acetohydrazide] were 93 ± 1% and 96.6 ± 0.87%.
As to `Cn1c(=O)c2c(ncn2CC(=O)N/N=C/c2ccc(O)cc2)n(C)c1=O` [18b, (E)-2-(1,3-Dimethyl-2,6-dioxo-1,2,3,6-tetrahydro-7H-purin-7-yl)-N′-(4-hydroxybenzylidene)acetohydrazide], the viability at 24 h, 50 µM in series [1] is 87 ± 0.8%. The inhibition at 25 µM in [2] was determined as 71.8 ± 0.9%.
As to `COc1ccc(/C=N/NC(=O)Cn2cnc3c2c(=O)n(C)c(=O)n3C)cc1OC` [18d, E-N′-(3,4-Dimethoxybenzylidene)-2-(1,3-dimethyl-2,6-dioxo-1,2,3,6-tetrahydro-7H-purin-7-yl)acetohydrazide], in [1], the viability at 24 h, 50 µM amounted to 90 ± 1%. In addition, in series [2], the inhibition at 25 µM is 70.7 ± 0.87%.
Taken in the same sequence, the figures for `COc1ccc(/C=N/NC(=O)Cn2cnc3c2c(=O)n(C)c(=O)n3C)cc1O` [18i, (E)-2-(1,3-Dimethyl-2,6-dioxo-1,2,3,6-tetrahydro-7H-purin-7-yl)-N′-(3-hydroxy-4-methoxybenzylidene)acetohydrazide] were 105 ± 1.2% and 63.2 ± 0.93%.
Take `NC(=S)NN=C1C(=O)Nc2ccccc21` [isatin thiosemicarbazone]: the Survival rate entry in the series with SK-N-SH Cells is “approximately 100%”.
Turning to `COc1cc(/C=N/NC(=O)Cn2cnc3c2c(=O)n(C)c(=O)n3C)cc(OC)c1OC` [18e, (E)-2-(1,3-Dimethyl-2,6-dioxo-1,2,3,6-tetrahydro-7H-purin-7-yl)-N′-(3,4,5-trimethoxybenzylidene)acetohydrazide], in series [1], the viability at 24 h, 50 µM turned out to be 92 ± 1%. Moreover, in series [2], the inhibition at 25 µM is 71.8 ± 0.9%.
